Active and inactive are the calls of the source.
Assays:
MCF7 = experiment: Cytotoxicity against human MCF7 cells at 10 uM after 96 hrs by MTT assay; type: functional, cell-based
Liver microsomes = experiment: Antioxidant activity in rat liver microsome assessed as inhibition of FeSO4-induced lipid peroxidation at 10 uM incubated for 15 mins prior to FeSO4-challenge measured after 15 mins by modified thiobarbituric acid method; type: functional
A549 = experiment: Cytotoxicity against human A549 cells at 10 uM after 96 hrs by MTT assay; type: functional, cell-based
WB-F344 = experiment: Hepatoprotective activity against DL-galactosamine-induced cell death in rat WB-F344 cells at 10 uM incubated for 1 hr prior to DL-galactosamine-challenge measured after 24 hrs by MTT assay; type: functional, cell-based
KETR3 = experiment: Cytotoxicity against human Ketr3 cells at 10 uM after 96 hrs by MTT assay; type: functional, cell-based
[1] = test system: Peritoneal macrophage cell; experiment: Antiinflammatory activity in mouse peritoneal macrophages assessed as inhibition of nitric oxide production at 10 uM; type: functional, cell-based
Bel-7402 = experiment: Cytotoxicity against human Bel7402 cells at 10 uM after 96 hrs by MTT assay; type: functional, cell-based
HCT-8 = experiment: Cytotoxicity against human HCT8 cells at 10 uM after 96 hrs by MTT assay; type: functional, cell-based
BGC-823 = experiment: Cytotoxicity against human BGC823 cells at 10 uM after 96 hrs by MTT assay; type: functional, cell-based

COC[C@]12CN(C)C3[C@@H]4[C@H](OC)[C@H]1[C@@]3([C@@H](OC)C[C@H]2O)[C@]1(O)C[C@@]2(O)[C@H](OC(=O)c3ccccc3)[C@@H]1[C@]4(O)[C@@H](O)[C@@H]2OC
inactive: Activity (MCF7) | inhibition (Liver microsomes) | Activity (A549) | Activity (WB-F344) | Activity (KETR3) | inhibition [1] | Activity (Bel-7402) | Activity (HCT-8) | Activity (BGC-823)

CCN1C[C@]2(COC)CC[C@H](O)[C@]34C1[C@H](C[C@H]23)[C@]1(O)[C@H]2[C@@H](OC(=O)c3ccccc3)[C@H](C[C@H]24)[C@@H](OC)[C@@H]1O
inactive: Activity (MCF7) | inhibition (Liver microsomes) | Activity (A549) | Activity (WB-F344) | Activity (KETR3) | inhibition [1] | Activity (Bel-7402) | Activity (HCT-8) | Activity (BGC-823)

COC[C@]12CN(C)C3[C@@H]4[C@H](OC)[C@H]1[C@@]3([C@@H](OC)C[C@H]2O)[C@@H]1C[C@@]2(O)[C@H](OC(=O)c3ccccc3)[C@@H]1[C@]4(O)[C@@H](O)[C@@H]2OC
inactive: Activity (MCF7) | inhibition (Liver microsomes) | Activity (A549) | Activity (WB-F344) | Activity (KETR3) | inhibition [1] | Activity (Bel-7402) | Activity (HCT-8) | Activity (BGC-823)

CCN1C[C@]2(COC)CC[C@H](OC)[C@]34C1[C@H]([C@H](OC)[C@H]23)[C@]1(OC)[C@H]2[C@@H](OC(=O)c3ccccc3)[C@](O)(C[C@H]24)[C@@H](OC)[C@@H]1O (single isomer, unassigned; (-))
inactive: Activity (MCF7) | inhibition (Liver microsomes) | Activity (A549) | Activity (WB-F344) | Activity (KETR3) | inhibition [1] | Activity (Bel-7402) | Activity (HCT-8) | Activity (BGC-823)

CCN1C(=O)[C@]2(COC)CC[C@H](OC)[C@]34C1[C@H]([C@H](OC)[C@H]23)[C@]1(OC(C)=O)[C@H]2[C@@H](OC(=O)c3ccccc3)[C@](O)(C[C@H]24)[C@@H](OC)[C@@H]1O
inactive: Activity (MCF7) | inhibition (Liver microsomes) | Activity (A549) | Activity (WB-F344) | Activity (KETR3) | inhibition [1] | Activity (Bel-7402) | Activity (HCT-8) | Activity (BGC-823)

CCN1C[C@]2(COC)[C@H](O)C[C@H](OC)[C@]34C1[C@H]([C@H](OC)[C@H]23)[C@@]1(OC(C)=O)C[C@H](OC)[C@@]2(O)C[C@]4(O)[C@@H]1[C@H]2OC(=O)c1ccccc1
inactive: Activity (MCF7) | inhibition (Liver microsomes) | Activity (A549) | Activity (WB-F344) | Activity (KETR3) | inhibition [1] | Activity (Bel-7402) | Activity (HCT-8) | Activity (BGC-823)

C=C1C[C@]23C4[C@@H](OC(=O)[C@@H](C)CC)[C@H]1[C@@H](O)[C@H]2[C@]12C[C@@H](OC(=O)C(C)C)C[C@]5(C)[C@H]1[C@H]([C@@H]3O)[N+](C)([C@H]42)[C@H]5O
inactive: Activity (MCF7) | inhibition (Liver microsomes) | Activity (A549) | Activity (WB-F344) | Activity (KETR3) | inhibition [1] | Activity (Bel-7402) | Activity (HCT-8) | Activity (BGC-823)

C=C1C[C@@]23C[C@H]4[C@@H]5[C@@]6(C)C[C@H](OC(=O)CC)C[C@@]57[C@@H]2[C@H](O)[C@@H]1[C@H](OC(=O)[C@@H](C)CC)C3[C@H]7[N+]4(C)[C@H]6O
inactive: Activity (MCF7) | inhibition (Liver microsomes) | Activity (A549) | Activity (WB-F344) | Activity (KETR3) | inhibition [1] | Activity (Bel-7402) | Activity (HCT-8) | Activity (BGC-823)

COC[C@]12CN(C)C3[C@@H]4[C@H](OC)[C@H]1[C@@]3([C@@H](OC)C[C@H]2O)[C@]1(O)C[C@@]2(O)[C@H](OC(=O)c3ccccc3)[C@@H]1[C@]4(OC)[C@@H](O)[C@@H]2OC (stereo in doubt; 8)
inactive: Activity (MCF7) | inhibition (Liver microsomes) | Activity (A549) | Activity (WB-F344) | Activity (KETR3) | inhibition [1] | Activity (Bel-7402) | Activity (HCT-8) | Activity (BGC-823)

CCN1C[C@]2(COC)CC[C@H](OC)[C@]34C1[C@H]([C@H](OC)[C@H]23)[C@]1(OC(C)=O)[C@H]2[C@@H](OC(=O)c3ccccc3)[C@](O)(C[C@H]24)[C@@H](OC)[C@@H]1O
inactive: Activity (MCF7) | inhibition (Liver microsomes) | Activity (A549) | Activity (WB-F344) | Activity (KETR3) | inhibition [1] | Activity (Bel-7402) | Activity (HCT-8) | Activity (BGC-823)

CCN1C[C@]2(COC)[C@H](O)C[C@H](OC)[C@]34C1[C@H]([C@H](OC)[C@H]23)[C@]1(OC)[C@H]2[C@@H](OC(=O)c3ccccc3)[C@](O)(C[C@]24O)[C@@H](OC)[C@@H]1O
inactive: Activity (MCF7) | inhibition (Liver microsomes) | Activity (A549) | Activity (WB-F344) | Activity (KETR3) | inhibition [1] | Activity (Bel-7402) | Activity (HCT-8) | Activity (BGC-823)

CCN1C[C@]2(COC)CC[C@H](O)[C@]34C1[C@H]([C@H](OC)[C@H]23)[C@]1(O)[C@H]2[C@@H](OC(=O)/C=C/c3ccccc3)[C@H](C[C@H]24)[C@@H](OC)[C@@H]1O
inactive: Activity (MCF7) | inhibition (Liver microsomes) | Activity (A549) | Activity (WB-F344) | Activity (KETR3) | inhibition [1] | Activity (Bel-7402) | Activity (HCT-8) | Activity (BGC-823)

COC[C@]12CN(C)C3[C@@H]4[C@H](OC)[C@H]1[C@@]3([C@@H](OC)C[C@H]2O)[C@]1(O)C[C@@]2(O)[C@H](OC(=O)c3ccccc3)[C@@H]1[C@]4(O)[C@@H](O)[C@H]2OC
inactive: Activity (MCF7) | inhibition (Liver microsomes) | Activity (A549) | Activity (WB-F344) | Activity (KETR3) | inhibition [1] | Activity (Bel-7402) | Activity (HCT-8) | Activity (BGC-823)

CCO[C@]12[C@H]3[C@@H](OC(=O)c4ccccc4)[C@H](C[C@H]3[C@@]34C5[C@@H]1[C@H](O)[C@@H]3[C@@](COC)(CC[C@@H]4OC)CN5CC)[C@@H](OC)[C@@H]2O
inactive: Activity (MCF7) | inhibition (Liver microsomes) | Activity (A549) | Activity (WB-F344) | Activity (KETR3) | inhibition [1] | Activity (Bel-7402) | Activity (HCT-8) | Activity (BGC-823)
